From ChEMBL document CHEMBL1131760, “Substrate-selective mechanisms in biocatalysis demonstrated with a versatile and efficient aldolase antibody” (Bioorg Med Chem Lett, 1999)

How the values were obtained:
[1] = Michaelis constant (Km) was determined; type: ADME
[2] = Catalytic constant from Lineweaver-Burke analysis for antibody catalyzed retrograde aldol reaction with the compound; type: ADME

Row | SMILES | Km [1] [µM] | k cat [2] [s⁻¹]
1 | CC(=O)CC(O)/C=C/c1ccc(C(F)(F)F)cc1 (configuration not stated) | 239 | 0.00227
2 | CC(=O)CC(O)/C=C/c1ccc(N(C)C)cc1 (configuration not stated) | 1250 | 0.042
3 | CC(=O)CC(O)/C=C/c1ccc([N+](=O)[O-])cc1 (configuration not stated) | 140 | 0.0013

Now from value to compound:

Row | Km [1] [µM] | k cat [2] [s⁻¹] | SMILES
4 | 415 | 0.00145 | CC(=O)CC(O)/C=C/c1ccccc1 (configuration not stated)
5 | 522 | 0.0067 | COc1ccc(/C=C/C(O)CC(C)=O)cc1 (configuration not stated)
6 | 324 | 0.00282 | CC(=O)CC(O)/C=C/c1ccc(Cl)cc1 (configuration not stated)
